From patent US10858365B2, “Triazolo-pyrimidine compounds and uses thereof” (Dizal (Jiangsu) Pharmaceutical Co., Ltd., priority 2018, dated 2020)

Legend:
Type in all cases: cell-based
mA2a = mA2a (Mus musculus (Mouse), UniProt Q60613); experiment: cAMP inhibition assay in mA2a/CHO cells; conditions: adenosine stimulation, read-out: cAMP & FLIPR IC50 (nM) mA2a
Description: (§1) hA2a/CHO, hA2b/CHO and mA2a/CHO (Genscript) were plated at 5×10^3 cells/well into 384-well polystyrene plates at the day of experiment. Compounds were pre-incubated with cells for 30 min at 37° C., 5% CO2. Then […] adenosine was added to the cells and incubated for 30 min at 37° C., 5% CO2. Detection reagent (CISBIO) was added and the plates were incubated for 60 min at room temperature. The signal was captured by Envision.

hA2b = hA2b (Homo sapiens (Human), UniProt P29275); experiment: cAMP inhibition assay in hA2b/CHO cells; conditions: adenosine stimulation, read-out: cAMP & FLIPR IC50 (nM) hA2b
Sequence of hA2b (P29275 whole entry): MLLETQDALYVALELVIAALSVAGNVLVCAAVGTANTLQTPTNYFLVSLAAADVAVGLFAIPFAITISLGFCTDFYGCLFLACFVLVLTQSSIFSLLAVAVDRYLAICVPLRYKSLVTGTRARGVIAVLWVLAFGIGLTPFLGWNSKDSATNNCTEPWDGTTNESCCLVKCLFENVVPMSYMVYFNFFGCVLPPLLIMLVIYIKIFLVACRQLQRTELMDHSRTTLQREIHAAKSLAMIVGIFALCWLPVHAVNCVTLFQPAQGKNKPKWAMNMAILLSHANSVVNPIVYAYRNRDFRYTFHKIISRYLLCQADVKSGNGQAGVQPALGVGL
Description: as §1

hA1 = hA1 (Homo sapiens (Human), UniProt P30542); experiment: FLIPR inhibition assay in hADORA1/CHO (hA1 expressing) cells; conditions: hADORA1/CHO cells, FLIPR calcium, adenosine stimulation; read-out: cAMP & FLIPR IC50 (nM) hA1
Sequence of hA1 (P30542 whole entry): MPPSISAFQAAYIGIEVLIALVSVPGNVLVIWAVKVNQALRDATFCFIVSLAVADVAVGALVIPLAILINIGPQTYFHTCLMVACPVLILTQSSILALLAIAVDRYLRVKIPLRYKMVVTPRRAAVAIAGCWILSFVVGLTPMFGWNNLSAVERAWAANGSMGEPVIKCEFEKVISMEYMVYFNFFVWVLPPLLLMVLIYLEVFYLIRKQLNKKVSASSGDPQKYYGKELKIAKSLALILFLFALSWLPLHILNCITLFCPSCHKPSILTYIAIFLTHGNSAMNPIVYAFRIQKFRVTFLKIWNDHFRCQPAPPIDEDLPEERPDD
Description: hADORA1/CHO (hA1 expressing) cells (Genscript) were plated at 1×10^4 cells/well into 384-well polystyrene plates one day before starting the experiment. On the day of experiment, the supernatant was discard and replaced with 40 µL of dye (FLIPR calcium 5 Assay Kit) per well and the plates were incubated for 60 mins at 37° C. plus 5% CO2. Then testing compounds were added at different concentrations for FLIPR™ inhibition assay. After a 400 s incubation with compound, […] adenosine was added into the cells, and the signal was captured by FLIPR.

hA2a = hA2a (Homo sapiens (Human), UniProt P29274); experiment: cAMP inhibition assay in hA2a/CHO cells; conditions: adenosine stimulation, read-out: cAMP & FLIPR IC50 (nM) hA2a
Sequence of hA2a (P29274 whole entry): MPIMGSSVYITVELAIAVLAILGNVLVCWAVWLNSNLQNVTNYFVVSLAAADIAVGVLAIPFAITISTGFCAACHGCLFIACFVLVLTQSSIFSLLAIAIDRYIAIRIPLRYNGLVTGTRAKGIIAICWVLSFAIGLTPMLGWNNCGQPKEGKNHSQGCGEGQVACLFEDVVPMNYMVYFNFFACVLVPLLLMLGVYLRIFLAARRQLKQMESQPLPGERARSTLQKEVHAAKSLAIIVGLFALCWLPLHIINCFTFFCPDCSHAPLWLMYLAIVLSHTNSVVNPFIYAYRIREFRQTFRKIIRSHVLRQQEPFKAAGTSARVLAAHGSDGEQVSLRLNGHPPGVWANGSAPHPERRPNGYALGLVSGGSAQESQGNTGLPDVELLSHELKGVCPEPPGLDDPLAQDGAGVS
Description: as §1
FLIPR™ and cAMP inhibition activities of exemplary compounds in different adenosine receptor over-expressing cell lines are shown in Table 4 below.

Sequence of mA2a (Q60613 whole entry): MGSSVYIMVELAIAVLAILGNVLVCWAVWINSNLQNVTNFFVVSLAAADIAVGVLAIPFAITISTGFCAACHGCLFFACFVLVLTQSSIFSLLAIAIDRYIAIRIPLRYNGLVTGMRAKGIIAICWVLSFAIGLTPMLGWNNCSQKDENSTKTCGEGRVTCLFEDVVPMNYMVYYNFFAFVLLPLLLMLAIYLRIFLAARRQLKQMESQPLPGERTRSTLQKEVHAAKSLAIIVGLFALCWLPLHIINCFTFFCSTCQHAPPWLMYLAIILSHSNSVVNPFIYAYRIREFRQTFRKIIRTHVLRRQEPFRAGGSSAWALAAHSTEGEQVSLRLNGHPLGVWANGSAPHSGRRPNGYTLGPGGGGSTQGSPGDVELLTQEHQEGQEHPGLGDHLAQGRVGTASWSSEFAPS

| SMILES | IC50 (mA2a) [nM] | IC50 (hA2b) [nM] | IC50 (hA1) [nM] | IC50 (hA2a) [nM] |
| --- | --- | --- | --- | --- |
| Cn1cc(-c2c(-c3nccs3)nc(N)n3nc(Cc4c(F)cccc4F)nc23)ccc1=O [Example 44, 5-(5-amino-2-(2,6-difluorobenzyl)-7-(thiazol-2-yl)-[1,2,4]triazolo[1,5-c]pyrimidin-8-yl)-l-methyl pyridin-2(lH)-one] | 5.9 | 97 | 13 | 4.3 |
| Cc1cnc2ccc(-c3c(N(C)C)nc(N)n4nc(Cc5ncccc5F)nc34)cn12 [Example 100, 2-[(3-fluoropyridin-2-yl)methyl]-N7,N7-dimethyl-8-[3-methylimidazo[1,2-a]pyridin-6-yl]-[1,2,4]triazolo[1,5-c]pyrimidine-5,7-diamine] | 3.5 | 38 | 11.8 | 1.2 |
| Cc1cnc2ccc(-c3c(-c4ncco4)nc(N)n4nc(CC5CCCO5)nc34)cn12 (single isomer, unassigned) [Example 106-2, 8-(3-methylimidazo[1,2-a]pyridin-6-yl)-7-(oxazol-2-yl)-2-((tetrahydrofuran-2-yl)methyl)-[1,2,4]triazolo[1,5-f]pyrimidin-5-amine] | – | – | 34.9 | 0.2 |
| Cn1cc(-c2c(-c3cccc(F)c3)nc(N)n3nc(Cc4ncccc4F)nc23)ccc1=O [Example 40, 5-(5-amino-7-(3-fluorophenyl)-2-((3-fluoropyridin-2-yl)methyl)-[1,2,4]triazolo[1,5-c]pyrimidin-8-yl)-1-methylpyridin-2(1H)-one] | 15 | 72 | 18 | 5.2 |
| Cn1cc(-c2c(-c3cc(F)cc(F)c3)nc(N)n3nc(Cc4ncccc4F)nc23)ccc1=O [Example 76, 5-(5-amino-7-(3,5-difliiorophenyl)-2-((3-fluoropyridin-2-yl)methyl)-[1,2,4]triazolo[1,5-c]pyrimidin-8-yl)-1-methylpyridin-2(1H)-one] | 19 | 253 | 8.8 | 7.9 |
| Nc1nc(-c2ccc(F)cc2)c(-c2ccc(=O)n(CCO)c2)c2nc(Cc3c(F)cccc3F)nn12 [Example 65, 5-(5-amino-2-(2,6-difluorobenzyl)-7-(4-fluorophenyl)-[1,2,4]triazolo[1,5-c]pyrimidin-8-yl)-1-(2-hydroxyethyl)pyridin-2(1H)-one] | 0.6 | 14 | 17 | 0.2 |
| COCCc1nc2c(-c3ccc4ncc(C)n4c3)c(-c3ncco3)nc(N)n2n1 [Example 126, 2-(2-methoxyethyl)-8-(3-methylimidazo[l,2-a]pyridin-6-yl)-7-(oxazol-2-yl)-[1,2,4]triazolo[1,5-c]pyrimidin-5-amine] | – | – | 83.6 | 1.1 |
| Nc1nc(-c2ccc(F)cc2)c(-c2ccc3ncccc3c2)c2nc(Cc3ncccc3F)nn12 [Example 89, 7-(4-fluorophenyl)-2-[(3-fluoropyridin-2-yl)methyl]-8-(quinolin-6-yl)-[1,2,4]triazolo[1,5-c]pyrimidin-5-amine] | 1.3 | 82 | 132 | 0.4 |
| COc1cc(-c2c(-c3ccc(F)cc3)nc(N)n3nc(Cc4c(F)cccc4F)nc23)ccn1 [Example 5, 2-(2,6-difluorobenzyl)-7-(4-fluorophenyl)-8-(2-methoxypyridin-4-yl)-[1,2,4]lriazolo[1,5-c] pyrimidin-5-amine] | 1.5 | – | – | 1.9 |
| Cc1cnc2ccc(-c3c(N4CCOC(C)C4)nc(N)n4nc(Cc5ncccc5F)nc34)cn12 (single isomer, unassigned; isomer 2) [Example 112-2, 2-((3-fluoropyridin-2-yl)methyl)-8-(3-methylimidazo[l,2-a]pyridin-6-yl)-7-(2-methylmorpholino)-[1,2,4]triazolo[1,5-c]pyrimidin-5-amine (isomer 2)] | – | – | 120 | 3.2 |
| Cc1cnc2ccc(-c3c(N4CCOC[C@@H]4C)nc(N)n4nc(Cc5ncccc5F)nc34)cn12 (single isomer, unassigned; isomer 1) [Example 113-1, 2-((3-fluoropyridin-2-yl)methyl)-8-(3-methylimidazo[l,2-a]pyridin-6-yl)-7-(3-methylmorpholino)-[1,2,4]triazolo[1,5-c]pyrimidin-5-amine (isomer 1)] | – | – | 3270 | 42.4 |
| CN1CCC[C@@H]1Cc1nc2c(-c3ccc4ncn(C)c4c3)c(-c3ccc(F)cc3)nc(N)n2n1 [Example 104, (R)-7-(4-fluorophenyl)-8-(1-methyl-1H-benzo[d]imidazol-6-yl)-2-((1-methylpyrrolidin-2-yl)methyl)-[1,2,4]triazolo[1,5-c]pyrimidin-5-amine] | 5.7 | – | 34.1 | 1 |
| Cc1cnc2ccc(-c3c(-c4ccc(F)cc4)nc(N)n4nc(CC5CCOC5)nc34)cn12 (single isomer, unassigned; isomer 2) [Example 105-2, 7-(4-fluorophenyl)-8-(3-methylimidazo[l,2-a]pyridin-6-yl)-2-((tetrahydrofuran-3-yl)methyl)-[1,2, 4]triazolo[1,5-c]pyrimidin-5-amine(isomer 2)] | – | 71.6 | 11.8 | – |
| COC1CN(c2nc(N)n3nc(Cc4c(F)cccc4F)nc3c2-c2ccc3ncc(C)n3c2)C1 [Example 109, 2-(2,6-difluorobenzyl)-7-(3-methoxyazetidin-l-yl)-8-(3-methylimidazo[l,2-a]pyridin-6-yl)-[l,2,4] triazolo[1,5-c]pyrimidin-5-amine] | – | – | 30.6 | 3.5 |
| Cc1cnc2ccc(-c3c(N4CCN(C)CC4)nc(N)n4nc(Cc5c(F)cccc5F)nc34)cn12 [Example 108, 2-(2,6-difluorobenzyl)-8-(3-methylimidazo[1,2-a]pyridin-6-yl)-7-{4-methylpiperazin-l-yl)-[1,2,4] triazolo[1,5-c]pyrimidin-5-amine] | – | – | 131 | 42.3 |
| Cc1cnc2ccc(-c3c(N4CC5(COC5)C4)nc(N)n4nc(Cc5ncccc5F)nc34)cn12 [Example 118, 2-((3-fluoropyridin-2-yl)methyl)-8-(3-methylimidazo[l,2-a]pyridin-6-yl)-7-(2-oxa-6-azaspiro[3.3)heptan-6-yl)-[l,2,4]triazolo[l,5-c]pyrimidin-5-a mine] | – | – | > 8090 | 228 |
| Cc1cnc2ccc(-c3c(N4CCC4)nc(N)n4nc(Cc5ncccc5F)nc34)cn12 [Example 119, 7-(azetidin-l-yl)-2-((3-fluoropyridin-2-yl)methyl)-8-(3-methylimidazo[1,2-a]pyridin-6-yl)-[1,2,4] triazolo[1,5-c]pyrimidin-5-amine] | – | – | 48.6 | 1.9 |
| Cc1cnc2ccc(-c3c(-c4ncco4)nc(N)n4nc(CC5CCCO5)nc34)cn12 (single isomer, unassigned) [Example 106-1, 8-(3-methylimidazo[1,2-a]pyridin-6-yl)-7-(oxazol-2-yl)-2-((tetrahydrofuran-2-yl)methyl)-[1,2,4]triazolo[1,5-f]pyrimidin-5-amine] | – | – | 53.2 | 0.5 |
| Cc1cnc2ccc(-c3c(N4CCOCC4C)nc(N)n4nc(Cc5ncccc5F)nc34)cn12 (single isomer, unassigned; isomer 2) [Example 113-2, 2-((3-fluoropyridin-2-yl)methyl)-8-(3-methylimidazo[1,2-a]pyridin-6-yl)-7-(3-methylmorpholino)-[1,2,4]triazolo[1,5-c]pyrimidin-5-amine (isomer 2)] | – | – | > 10000 | 73 |
| Cn1cc(-c2c(-c3ncco3)nc(N)n3nc(Cc4ncccc4OC(F)F)nc23)ccc1=O [Example 71, 5-(5-amino-2-[[3-(difluoromethoxy)pyridin-2-yl]methyl]-7-(1,3-oxazol-2-yl)-[1,2,4]triazolo[1,5-c]pyrimidin-8-yl)-1-methyl-1,2-dihydropyridin-2-one] | – | 102 | 8.9 | 11 |
| Cc1cnc2ccc(-c3c(N4CCOC(C)C4)nc(N)n4nc(Cc5ncccc5F)nc34)cn12 (single isomer, unassigned; isomer 1) [Example 112-1, 2-((3-fluoropyridin-2-yl)methyl)-8-(3-methylimidazo[l,2-a]pyridin-6-yl)-7-(2-methylmorpholino)-[1,2,4]triazolo[1,5-c]pyrimidin-5-amine (isomer 1)] | – | – | 966 | 91.6 |
| CN1CCC[C@H]1Cc1nc2c(-c3ccc4ncn(C)c4c3)c(-c3ccc(F)cc3)nc(N)n2n1 [Example 103, (S)-7-(4-fluorophenyl)-8-(1-methyl-1H-benzo[d]imidazol-6-yl)-2-((1-methylpyrrolidin-2-yl)methyl)-[1,2,4]triazolo[1,5-c]pyrimidin-5-amine] | 30.3 | – | 264 | 8.3 |
| Cc1cnc2ccc(-c3c(-c4ccc(F)cc4)nc(N)n4nc(C[C@H]5CCCN5C)nc34)cn12 [Example 125, (R)-7-(4-fluorophenyl)-8-(3-methylimidazo[l,2-a]pyrdin-6-yl)-2-((1-methylpyrrolidin-2-yl)methyl)-[l,2,4]triazolo[l,5-c]pyrimidin-5-amine] | – | – | 34.1 | 0.4 |
